Results reported in publication PMC4669722, “Antitumour potential of BPT: a dual inhibitor of cdk4 and tubulin polymerization” (Cell Death & Disease, 2015).
Read-outs that look alike come from different tables or passages of the source.

Columns and labels:
[1] = system: NCI-H460 (NSCLC; p53+, pRb+); test: Cell proliferation (MTT) assay, NCI-H460; assay type: cell-based; settings: Homo sapiens, 48 h, read-out: IC50 cell growth inhibition, NCI-H460
Experimental: (§1) All 10 human cancer cell lines were maintained at 37 °C in 5% CO2 in RPMI-1640 medium, supplemented with 10% foetal calf serum and 100 μg/ml normocin. The 10 cancer cell lines used for screening were all obtained from ATCC (Manassas, VA, USA); they were the NSCLC (a form of cancer that is resistant to chemotherapy) lines: NCI-H460 (pRb^+, p53^+), A549 (pRb^+, p53^+), Calu-1 (pRb^+, p53-null), NCI-H1299 (pRb^+, p53-null), NCI-H358 (pRb-null, p53-null); the colon cancer line LS174T (pRb^+, p53^+); the prostate cancer line PC-3 (pRb^+, p53-null); the pancreatic cancer line MiaPaca (pRb^+, p53-mutant). The genotypes within brackets indicate the status of the tumour suppressor proteins pRb and p53. The mouse embryonic normal hepatic cell line (BNL CL2) and its SV40 large T-antigen-transformed counterpart cell line (BNL SV A.8) were also purchased from ATCC. The large T-antigen inactivates the tumour suppressor proteins p53 and pRb. The detailed procedure of cell proliferation (MTT) assay and IC50 determination was described previously.[32]

[2] = system: NCI-H358 (NSCLC; p53 null, pRb null); test: Cell proliferation (MTT) assay, NCI-H358; assay type: cell-based; settings: Homo sapiens, 48 h, read-out: IC50 cell growth inhibition, NCI-H358
Experimental: as §1

[3] = system: BNL CL2 (mouse normal hepatic cells); test: Cell proliferation (MTT) assay, BNL CL2; assay type: cell-based; settings: Mus musculus, BNL CL.2; 48 h, MTT; read-out: IC50 cell growth inhibition, BNL CL2
Experimental: as §1

[4] = system: Calu-1 (NSCLC; p53 null, pRb+); test: Cell proliferation (MTT) assay, Calu-1; assay type: cell-based, human; settings: Homo sapiens, Calu-1; 48 h, MTT; read-out: IC50 cell growth inhibition, Calu-1
Experimental: as §1

Cdk1-cyclin B1 = Cdk1-cyclin B1 (Homo sapiens, UniProt P06493); test: In vitro kinase assay, Cdk1-cyclin B1 (in-house); assay type: biochemical; settings: three independent experiments; read-out: IC50 (mean±S.D.), Cdk1-cyclin B1
Experimental: (§2) The in vitro kinase assays for testing against Cdk4-cyclin D1, Cdk2-cyclin A, Cdk1-cyclin B1 and Cdk9-cyclin T1 were performed in-house. The methodology and results have been reported previously.[20], [30], [31], [32], [45] The kinase profiling for 58 representative kinases was carrried out commercially at Millipore Bioscience Division, Livingston, UK.

pBluescript plasmid DNA [5] = test: EtBr displacement assay; assay type: binding; settings: 1.3 μM EtBr
Experimental: The assays were performed in a 96-well plate with clear bottom (Costar, Washington, DC, USA). The assay involved the addition of 10 μl of 10 × concentrated stock solution of compounds (dissolved in DMSO and further diluted in EtBr displacement assay buffer) to 90 μl of reaction mixture containing 6 μg of purified pBlueScript DNA and 1.3 μM EtBr in EtBr displacement assay buffer with final pH 7.4. Equivalent amounts of DMSO were added to the vehicle controls. In addition to control samples (DNA+EtBr), test samples (DNA+EtBr+test compounds), blank 1 (EtBr only), blank 2 (DNA only), wells containing DNA and compound were also prepared to test any change in the background fluorescence readings. The reduction in relative fluorescence counts was monitored ([…]) and recorded after 1 min equilibration time. Fascaplysin and actinomycin D, which are known to intercalate d-s DNA, were used as standard compounds in assay. The mean control and test readings were corrected by subtracting blank readings. The percentage fluorescence in the test samples in reaction with control samples was calculated by using following formula: […]

A549 (NSCLC; p53+, pRb+) = test: Cell proliferation (MTT) assay, A549; assay type: cell-based; settings: Homo sapiens, 48 h, read-out: IC50 cell growth inhibition, A549
Experimental: as §1

[6] = system: BNL SV A.8 (mouse hepatic; SV40-mediated transformed cells); test: Cell proliferation (MTT) assay, BNL SV A.8; assay type: cell-based; settings: Mus musculus; 48 h, MTT; read-out: IC50 cell growth inhibition, BNL SV A.8
Experimental: as §1

Cdk2-cyclin A = Cdk2-cyclin A (Homo sapiens, UniProt P24941); test: In vitro kinase assay, Cdk2-cyclin A (in-house); assay type: biochemical
Experimental: as §2

[7] = system: MiaPaCa (pancreatic; p53His273mut, pRb+); test: Cell proliferation (MTT) assay, MiaPaCa; assay type: cell-based; settings: Homo sapiens, MIA PaCa-2, 48 h, read-out: IC50 cell growth inhibition, MiaPaCa
Experimental: as §1

[8] = system: NCI-H1299 (NSCLC; p53 null, pRb+); test: Cell proliferation (MTT) assay, NCI-H1299; assay type: cell-based; settings: Homo sapiens, 48 h, read-out: IC50 cell growth inhibition, NCI-H1299
Experimental: as §1

[9] = system: PC-3 (prostate; p53 null, pRb+); test: Cell proliferation (MTT) assay, PC-3; assay type: cell-based; settings: Homo sapiens, 48 h, read-out: IC50 cell growth inhibition, PC-3
Experimental: as §1

[10] = system: LS174T (colorectal carcinoma; p53+, pRb+); test: Cell proliferation (MTT) assay, LS174T; assay type: cell-based; settings: Homo sapiens, 48 h, read-out: IC50 cell growth inhibition, LS174T
Experimental: as §1

Cdk4-cyclin D1 [11] = molecular target: T1, Cdk4-cyclin D1 (Homo sapiens, UniProt P11802); test: In vitro kinase assay, Cdk4-cyclin D1 (in-house); assay type: biochemical; settings: three independent experiments; read-out: IC50 (mean±S.D.), Cdk4-cyclin D1
Experimental: as §2

Cdk9-cyclin T1 = Cdk9-cyclin T1 (Homo sapiens, UniProt P50750); test: In vitro kinase assay, Cdk9-cyclin T1 (in-house); assay type: biochemical; settings: three independent experiments; read-out: IC50 (mean±S.D.), Cdk9-cyclin T1
Experimental: as §2

Calu-1 cells = system: Calu-1 cells; design: method as in PMID 16493461; settings: cited from earlier work
Cdk4-cyclin D1 [12] = molecular target: T1, Cdk4-cyclin D1; design: method as in PMID 12941311, PMID 15165138; settings: cited from earlier work
pBluescript plasmid DNA [13] = test: Topoisomerase I catalysed DNA relaxation or unwinding assay; assay type: biochemical
Experimental: For assay, 5 nM supercoiled pBluescript d-s plasmid DNA and 10 U of topoisomerase-I active enzyme were used in each reaction well. To ensure that the assay determines the DNA-intercalating property of compounds and not topoisomerase I inhibition, in a parallel experiment relaxed plasmid DNA was first prepared by treating with topo I enzyme for 30 min and then used as an initial substrate for the assay. DNA relaxation assays were performed in the presence or absence of compounds in 40 μl of DNA unwinding assay buffer. After 30 min incubation at 37 °C, reaction mixtures were treated with 3 μl of 250 mM EDTA and extracted with phenol/chloroform. The DNA was dissolved in tris-EDTA buffer, pH 8.0. The samples (20 μl) were treated with 2 μl of 2.5% SDS, mixed with 2.5 μl agarose gel loading buffer (10x) and subjected to electrophoresis on a 0.8% agarose gel without EtBr (separating the DNA in the presence of EtBr would convert the relaxed DNA into the supercoiled form). After the electrophoretic separation, DNA bands were stained with 1 μg/ml EtBr and visualized using a UV illuminator. The compounds were compared with fascaplysin, which is a known DNA-intercalating molecule. Camptothecin, which is a known topoisomerase- I inhibitor, was used to test the activity and inhibition of enzyme.

[14] = three independent experiments, read-out: IC50 (mean±S.D.), Cdk2-cyclin A

T1 sequence (P11802 whole entry): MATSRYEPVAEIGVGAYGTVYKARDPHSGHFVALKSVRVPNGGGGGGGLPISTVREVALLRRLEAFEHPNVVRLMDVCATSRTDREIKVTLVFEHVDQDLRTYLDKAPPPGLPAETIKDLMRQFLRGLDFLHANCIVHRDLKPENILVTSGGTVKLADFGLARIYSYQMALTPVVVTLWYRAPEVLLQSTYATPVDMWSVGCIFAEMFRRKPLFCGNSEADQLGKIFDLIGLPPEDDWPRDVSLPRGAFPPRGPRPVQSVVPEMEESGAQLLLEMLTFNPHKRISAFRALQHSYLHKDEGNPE
T1 sequence (P24385 whole entry partner): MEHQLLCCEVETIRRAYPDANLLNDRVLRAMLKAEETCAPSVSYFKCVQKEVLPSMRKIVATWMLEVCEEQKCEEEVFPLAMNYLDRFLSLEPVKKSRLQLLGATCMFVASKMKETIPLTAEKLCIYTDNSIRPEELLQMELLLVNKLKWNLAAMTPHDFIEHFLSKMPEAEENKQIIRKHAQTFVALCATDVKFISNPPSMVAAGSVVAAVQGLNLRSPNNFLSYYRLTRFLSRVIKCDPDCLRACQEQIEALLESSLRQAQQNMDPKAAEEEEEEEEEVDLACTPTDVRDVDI
Sequence of Cdk1-cyclin B1 (P06493 whole entry): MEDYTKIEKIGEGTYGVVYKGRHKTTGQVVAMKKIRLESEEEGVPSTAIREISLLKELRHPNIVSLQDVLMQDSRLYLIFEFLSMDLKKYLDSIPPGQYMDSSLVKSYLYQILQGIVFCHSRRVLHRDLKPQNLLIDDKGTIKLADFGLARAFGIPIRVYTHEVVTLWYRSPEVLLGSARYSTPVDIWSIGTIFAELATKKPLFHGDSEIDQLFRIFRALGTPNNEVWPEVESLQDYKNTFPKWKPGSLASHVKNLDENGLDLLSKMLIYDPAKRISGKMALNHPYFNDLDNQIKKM
Sequence of Cdk1-cyclin B1 (P14635 whole entry partner): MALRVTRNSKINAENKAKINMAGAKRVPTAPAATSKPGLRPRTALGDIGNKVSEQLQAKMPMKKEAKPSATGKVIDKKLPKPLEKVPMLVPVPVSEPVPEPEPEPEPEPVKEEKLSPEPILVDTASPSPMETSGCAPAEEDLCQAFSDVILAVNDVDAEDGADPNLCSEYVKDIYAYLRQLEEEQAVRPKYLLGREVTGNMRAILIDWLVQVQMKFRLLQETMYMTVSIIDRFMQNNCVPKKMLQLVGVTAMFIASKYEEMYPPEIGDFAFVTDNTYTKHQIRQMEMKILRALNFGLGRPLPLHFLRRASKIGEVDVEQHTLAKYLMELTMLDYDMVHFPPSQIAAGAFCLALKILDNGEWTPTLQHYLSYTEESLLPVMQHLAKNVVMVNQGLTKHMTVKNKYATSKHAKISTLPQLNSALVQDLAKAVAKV
Sequence of Cdk9-cyclin T1 (P50750 whole entry): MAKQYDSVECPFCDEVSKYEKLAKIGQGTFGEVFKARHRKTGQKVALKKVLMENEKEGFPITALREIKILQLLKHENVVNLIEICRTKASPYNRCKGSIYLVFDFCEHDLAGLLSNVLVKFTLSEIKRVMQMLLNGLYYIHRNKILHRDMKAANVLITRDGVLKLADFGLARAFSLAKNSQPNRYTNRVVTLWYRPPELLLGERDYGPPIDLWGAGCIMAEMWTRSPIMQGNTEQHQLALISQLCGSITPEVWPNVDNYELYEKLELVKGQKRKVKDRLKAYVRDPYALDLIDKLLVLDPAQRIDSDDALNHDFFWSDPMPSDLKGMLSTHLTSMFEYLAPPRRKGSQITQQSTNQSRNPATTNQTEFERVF
Sequence of Cdk9-cyclin T1 (O60563 whole entry partner): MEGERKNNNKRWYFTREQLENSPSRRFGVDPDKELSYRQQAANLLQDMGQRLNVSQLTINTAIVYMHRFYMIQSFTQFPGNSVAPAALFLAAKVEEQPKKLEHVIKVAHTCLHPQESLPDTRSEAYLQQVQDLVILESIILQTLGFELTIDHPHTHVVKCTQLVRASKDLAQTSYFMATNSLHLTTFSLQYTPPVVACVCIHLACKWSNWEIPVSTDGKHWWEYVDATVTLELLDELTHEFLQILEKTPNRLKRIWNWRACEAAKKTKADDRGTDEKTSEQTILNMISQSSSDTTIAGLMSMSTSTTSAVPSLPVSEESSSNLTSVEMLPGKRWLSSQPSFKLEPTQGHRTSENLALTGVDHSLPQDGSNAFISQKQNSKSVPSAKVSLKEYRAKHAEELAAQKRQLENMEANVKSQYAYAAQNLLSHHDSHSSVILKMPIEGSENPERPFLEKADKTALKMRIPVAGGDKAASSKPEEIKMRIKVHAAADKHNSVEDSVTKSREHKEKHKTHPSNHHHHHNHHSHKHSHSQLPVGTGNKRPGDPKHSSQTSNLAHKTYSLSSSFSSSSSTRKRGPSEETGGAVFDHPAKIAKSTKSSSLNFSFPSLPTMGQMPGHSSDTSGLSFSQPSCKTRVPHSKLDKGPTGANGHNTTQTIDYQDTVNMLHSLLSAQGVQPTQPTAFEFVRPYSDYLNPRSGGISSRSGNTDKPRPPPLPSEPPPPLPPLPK

IC50 [1] [µM]	IC50 [2] [µM]	IC50 [4] [µM]	IC50 (Cdk1-cyclin B1) [µM]	EtBr displacement from DNA (pBluescript plasmid DNA [5]; pH 7.4)	IC50 (A549 (NSCLC; p53+, pRb+)) [µM]	IC50 (Cdk2-cyclin A; [14]) [µM]	IC50 [7] [µM]	IC50 [8] [µM]	IC50 [9] [µM]	IC50 [10] [µM]	IC50 (Cdk4-cyclin D1 [11]) [µM]	IC50 (Cdk9-cyclin T1) [µM]	SMILES	IC50 [3] [µM]	IC50 [6] [µM]	also measured
29	28	92	> 500	No EtBr displacement up to 100 μM	46	861 ± 29	43	35	42	33	25 ± 5.5	> 1000	COc1ccccc1C(=O)N1CCc2c([nH]c3ccccc23)C1 [CA198]	37	40	–
6.2	3.5	47	> 500	No EtBr displacement up to 100 μM	8	766 ± 33	8.5	4.5	13.1	7.1	24.4 ± 4	> 1000	COc1cccc(C(=O)N2CCc3c([nH]c4ccccc34)C2)c1 [CA199]	6.5	8.2	phase of cell cycle block in Calu-1 cells (Calu-1 cells): blocks only at the G0/G1 phase
22	25	54	> 500	No EtBr displacement up to 100 μM	31	720 ± 24	29	30	32	29	44 ± 3	> 1000	CC(C)(C)c1ccc(C(=O)N2CCc3c([nH]c4ccccc34)C2)cc1 [CA211]	27	35	–

SMILES	IC50 [1] [µM]	IC50 [2] [µM]	IC50 [4] [µM]	IC50 (Cdk1-cyclin B1) [µM]	EtBr displacement from DNA (pBluescript plasmid DNA [5]; pH 7.4)	IC50 (A549 (NSCLC; p53+, pRb+)) [µM]	IC50 (Cdk2-cyclin A; [14]) [µM]	IC50 [7] [µM]	IC50 [8] [µM]	IC50 [9] [µM]	IC50 [10] [µM]	IC50 (Cdk4-cyclin D1 [11]) [µM]	IC50 (Cdk9-cyclin T1) [µM]	IC50 [3] [µM]	IC50 [6] [µM]	also measured
O=C1c2ccccc2-[n+]2ccc3c([nH]c4ccccc43)c21 [Fascaplysin, fascaplysin, reference compound]	–	–	1.3	> 250	Displaces EtBr at 1 μM	0.69	–	0.88	–	0.92	0.88	–	> 250	–	–	IC50 (Cdk4-cyclin D1 [12]): ~0.35 µM; EtBr displacement from DNA (pBluescript plasmid DNA [5]; pH 7.4, listed as fascaplysin): readily dislodges the bound EtBr; state of relaxed (negatively supercoiled) plasmid DNA after treatment (pBluescript plasmid DNA [13]; relaxed pBluescript DNA as substrate, BPT up to 100 μM, fascaplysin 1 μM): does not remain intact; hindrance of topoisomerase-I catalysed DNA relaxation (pBluescript plasmid DNA [13]; supercoiled pBluescript DNA, fascaplysin 10 and 1 µM, BPT 10 and 100 µM): hinder topoisomerase-I catalysed DNA relaxation; IC50 (Cdk2-cyclin A): > 250 µM
